Results published in patent US20140357713A1, “ANTIMICROBIAL COMPOUNDS AND METHODS OF USE” (NexMed Holdings, Inc., priority 2012, published 2014).
Where a name gives a salt, the structure may show the parent alone. Read-outs that look alike come from different tables or passages of the source.

Columns and labels:
[1] = Solubility (Sol., Table 1); format: physicochemical
[2] = test system: Pseudomonas aeruginosa (ATCC 27853); assay: Minimum inhibitory concentration (MIC) assay, Example 33; format: cell-based; conditions: Pseudomonas aeruginosa
In short: (§1)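 Antibacterial MICs come from CLSI-guided broth microdilution in CAMHB at 35° C, using a McFarland 0.5-standardized inoculum diluted 1:100 before 1:2 addition to drug wells.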

[3] = test system: Escherichia coli (ATCC 25922); assay: as above; format: cell-based; conditions: Escherichia coli
In short: as §1

pH (Table 1) = format: physicochemical
[4] = test system: Candida albicans (ATCC 90029); assay: Minimum inhibitory concentration (MIC) assay, Example 33; format: cell-based; conditions: Candida albicans
In short: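 MIC read per CLSI after incubation at 35° C. Colonies in RPMI 1640 adjusted to OD530 0.08–0.13, diluted 1:50 and 1:20 to twice test density, then added 1:2 to wells holding 2-fold serial drug dilutions in RPMI 1640 (CLSI microdilution).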

[5] = test system: Staphulococcus aureus (ATCC 29213); assay: as above; format: cell-based, Staphylococcus aureus; conditions: Staphylococcus aureus
In short: as §1

[6] = test system: Candida albicans (ATCC 90029); assay: Time kill study, Example 33 (0 to 5 min); format: cell-based; conditions: 1×MIC
In short: (§2)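 Read-out: Log10 CFU/mL by colony count on agar after 24 to 48 hrs. Exposure: strain suspension and compound solution at equal volume, CLSI method, samples at 0 min, 30 sec, 1 min and 5 mins diluted in test medium before plating.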

[7] = test system: Aspergillus niger (CMCC 98003); assay: Minimum inhibitory concentration (MIC) assay, Example 33; format: cell-based; conditions: for MIC: Aspergillus niger; for MIC Aspergillus niger: n = 2
In short: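 Conidia gently probed from sporulating colonies into RPMI 1640, set to 0.09-0.13 at 530 nm, then diluted 1:50 and mixed 1:2 with 2-fold serially diluted compounds. Following CLSI guidelines, incubation was at 35 °C before the MIC was recorded.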

[8] = test system: Pseudomonas aeruginosa (ATCC 27853); assay: Time kill study, Example 33 (0 to 5 min); format: cell-based; conditions: 1×MIC
In short: as §2

[9] = test system: Escherichia coli (ATCC 25922); assay: Time kill study, Example 33 (0 to 5 min); format: cell-based; conditions: 1×MIC
In short: as §2

[10] = test system: Staphylococcus aureus (ATCC 29213); assay: Time kill study, Example 33 (0 to 5 min); format: cell-based; conditions: 1×MIC
In short: as §2

[11] = ATCC27853, read-out: MIC P. aeruginosa, n = 1
[12] = ATCC27853, read-out: MIC P. aeruginosa, n = 2
[13] = ATCC25922, Table 19 summary of Example 33 and Example 35
[14] = ATCC25922, read-out: MIC E. coli, n = 1
[15] = ATCC25922, read-out: MIC E. coli, n = 2
[16] = ATCC90029, read-out: MIC Candida albicans, n = 1
[17] = ATCC90029, read-out: MIC Candida albicans, n = 2
[18] = ATCC29213, read-out: MIC S. aureus, n = 1
[19] = ATCC29213, read-out: MIC S. aureus, n = 2
[20] = CMCC98003, read-out: MIC Aspergillus niger

SMILES	Sol. [1] [%]	MIC ([2]; ATCC27853, Table 19 summary) [µg/mL]	MIC [2, 11] [µg/mL]	MIC [2, 12] [µg/mL]	MIC [3, 13] [µg/mL]	MIC [3, 14] [µg/mL]	MIC [3, 15] [µg/mL]	pH (pH (Table 1))	MIC ([4]; ATCC90029, Table 19 summary) [µg/mL]	MIC [4, 16] [µg/mL]	MIC [4, 17] [µg/mL]	MIC ([5]; ATCC29213, Table 19 summary) [µg/mL]	MIC [5, 18] [µg/mL]	MIC [5, 19] [µg/mL]	MIC ([7]; CMCC98003) [µg/mL]	MIC [7, 20] [µg/mL]	MIC Aspergillus niger [7] [µg/mL]	Viable counts, Pseudomonas aeruginosa time kill study ([8]; 0.5 min) [Log10 CFU/mL]	Viable counts, Pseudomonas aeruginosa time kill study ([8]; 1 min) [Log10 CFU/mL]	Viable counts, Pseudomonas aeruginosa time kill study ([8]; 5 min) [Log10 CFU/mL]	also measured
CCCCCCCCCCCCOC(=O)C(Cc1ccccc1)N(C)C (centres unmarked) [Nex-54, Dodecyl 2-(dimethylamino)-3-phenylpropanoate hydrochloride]	58	≥ 12500	> 12500	12500	≥ 12500	> 12500	12500	2.16	6250	6250	6250	≥ 12500	> 12500	12500	12500	12500	12500				Viable counts, Candida albicans time kill study ([6]; 0.5 min): 5.56 Log10 CFU/mL; Viable counts, Candida albicans time kill study ([6]; 1 min): 5.52 Log10 CFU/mL; Viable counts, Candida albicans time kill study ([6]; 5 min): 5.48 Log10 CFU/mL; Viable counts, Candida albicans time kill study ([6]; time 0): 5.56 Log10 CFU/mL
CCCCCCCCCCCOC(=O)C(C)N(C)C (centres unmarked) [Nex-67, Undecyl 2-(dimethylamino)propanoate hydrochloride]	81	6250	6250	6250	1560	1560	1560	3.77	6250	6250	6250		3130	1560	12500	12500	12500	<4.0	<3.70	<3.52	Viable counts, Pseudomonas aeruginosa time kill study ([8]; time 0): 5.71 Log10 CFU/mL; Viable counts, Escherichia coli time kill study ([9]; 0.5 min): 5.81 Log10 CFU/mL; Viable counts, Escherichia coli time kill study ([9]; 1 min): 5.28 Log10 CFU/mL; Viable counts, Escherichia coli time kill study ([9]; 5 min): 3.82 Log10 CFU/mL; Viable counts, Escherichia coli time kill study ([9]; time 0): 5.64 Log10 CFU/mL; Viable counts, Candida albicans time kill study ([6]; 0.5 min): 5.53 Log10 CFU/mL; Viable counts, Candida albicans time kill study ([6]; 1 min): 5.49 Log10 CFU/mL; Viable counts, Candida albicans time kill study ([6]; 5 min): 5.41 Log10 CFU/mL; Viable counts, Candida albicans time kill study ([6]; time 0): 5.58 Log10 CFU/mL; Viable counts, Staphylococcus aureus time kill study ([10]; 0.5 min): 6.1 Log10 CFU/mL; Viable counts, Staphylococcus aureus time kill study ([10]; 1 min): 6.13 Log10 CFU/mL; Viable counts, Staphylococcus aureus time kill study ([10]; 5 min): 5.88 Log10 CFU/mL; Viable counts, Staphylococcus aureus time kill study ([10]; time 0): 6.27 Log10 CFU/mL
CCCCCCCCCCCCCCOC(=O)C(C)N(C)C (centres unmarked) [Nex-66, Tetradecyl 2-(dimethylamino)propanoate hydrochloride]	48	6250	6250	6250	3130	3130	3130	2.35	> 12500	> 12500	> 12500	3130	3130	3130	> 12500	> 12500	>12500	5.91	5.68	5.56	Viable counts, Pseudomonas aeruginosa time kill study ([8]; time 0): 5.64 Log10 CFU/mL; Viable counts, Escherichia coli time kill study ([9]; 0.5 min): 5.91 Log10 CFU/mL; Viable counts, Escherichia coli time kill study ([9]; 1 min): 6.03 Log10 CFU/mL; Viable counts, Escherichia coli time kill study ([9]; 5 min): 5.81 Log10 CFU/mL; Viable counts, Escherichia coli time kill study ([9]; time 0): 5.7 Log10 CFU/mL; Viable counts, Staphylococcus aureus time kill study ([10]; 0.5 min): 6.5 Log10 CFU/mL; Viable counts, Staphylococcus aureus time kill study ([10]; 1 min): 6.41 Log10 CFU/mL; Viable counts, Staphylococcus aureus time kill study ([10]; 5 min): 6.39 Log10 CFU/mL; Viable counts, Staphylococcus aureus time kill study ([10]; time 0): 6.27 Log10 CFU/mL
CCCCCCCCCCCC(C)OC(=O)C(C)N(C)C (centres unmarked) [Nex-64, Tridecan-2-yl 2-(dimethylamino)propanoate hydrochloride]	44	6250	6250	6250	3130	3130	3130	1.95	> 12500	> 12500	> 12500	3130	3130	3130	> 12500	> 12500	>12500	4	<3.70	<3.52	Viable counts, Pseudomonas aeruginosa time kill study ([8]; time 0): 5.45 Log10 CFU/mL; Viable counts, Escherichia coli time kill study ([9]; 0.5 min): 5.73 Log10 CFU/mL; Viable counts, Escherichia coli time kill study ([9]; 1 min): 5.7 Log10 CFU/mL; Viable counts, Escherichia coli time kill study ([9]; 5 min): <3.52 Log10 CFU/mL; Viable counts, Escherichia coli time kill study ([9]; time 0): 5.71 Log10 CFU/mL; Viable counts, Staphylococcus aureus time kill study ([10]; 0.5 min): 6.41 Log10 CFU/mL; Viable counts, Staphylococcus aureus time kill study ([10]; 1 min): 6.38 Log10 CFU/mL; Viable counts, Staphylococcus aureus time kill study ([10]; 5 min): 6.36 Log10 CFU/mL; Viable counts, Staphylococcus aureus time kill study ([10]; time 0): 6.34 Log10 CFU/mL
CCCCCCCCCCCCCOC(=O)C(C)N(C)C (centres unmarked) [Nex-69, Tridecyl 2-(dimethylamino)propanoate hydrochloride]	51	6250	6250	6250	3130	3130	3130	1.64	12500	12500	12500	3130	3130	3130	> 12500	> 12500	>12500	5.75	5.74	5.21	Viable counts, Pseudomonas aeruginosa time kill study ([8]; time 0): 5.65 Log10 CFU/mL; Viable counts, Escherichia coli time kill study ([9]; 0.5 min): 5.72 Log10 CFU/mL; Viable counts, Escherichia coli time kill study ([9]; 1 min): 5.54 Log10 CFU/mL; Viable counts, Escherichia coli time kill study ([9]; 5 min): <3.52 Log10 CFU/mL; Viable counts, Escherichia coli time kill study ([9]; time 0): 6.25 Log10 CFU/mL; Viable counts, Staphylococcus aureus time kill study ([10]; 0.5 min): 6.39 Log10 CFU/mL; Viable counts, Staphylococcus aureus time kill study ([10]; 1 min): 6.31 Log10 CFU/mL; Viable counts, Staphylococcus aureus time kill study ([10]; 5 min): 6.38 Log10 CFU/mL; Viable counts, Staphylococcus aureus time kill study ([10]; time 0): 6.41 Log10 CFU/mL
